Experimental data published in the supplement of paper PMC10307832.

Compound: COC1=CC=C(C=C1)CN2C=CC3=C2C=C(C=C3)C(=O)NO + CC(=O)c1c(C)c2cnc(Nc3ccc(N4CCNCC4)cn3)nc2n(C2CCCC2)c1=O [Palbociclib] (partner 0.5 µM)
Assay: relative viability (nuclei count vs DMSO), 5 days (fraction); higher = more cells survive
Details: first compound 0.08 µM
Summary of the method: (§1)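 Dosing by pin tool came one day after lung cancer cell lines were seeded in 1536-well plates, using either one drug or a fixed anchor-drug dose plus five library-drug doses (not always all listed) in √10 steps. After 5 days, nuclei were counted on 4× images. Relative viability is treated-well nuclei count divided by vehicle-well nuclei count, and values are medians of duplicate plates.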

Cell Line | relative viability
LC-2-ad | 0.446
SW 900 | 0.491
NCI-H1651 | 0.476
COR-L23 | 0.23
HCC-827 | 0.448
LCLC-103H | 0.435
RERF-LC-KJ | 1.05
NCI-H3122 | 0.196
BEN | 0.468
NCI-H2085 | 0.492
A-427 | 0.291
NCI-H727 | 0.61
NCI-H838 | 0.214
201T | 0.338
NCI-H2228 | 0.544
NCI-H1666 | 0.642
NCI-H650 | 0.328
NCI-H1993 | 0.586
HCC-44 | 0.936
NCI-H647 | 0.441
NCI-H2126 | 0.34
NCI-H1755 | 0.464

Same assay, conditions: first compound 0.253 µM

Cell Line | relative viability
LC-2-ad | 0.532
SW 900 | 0.564
NCI-H1651 | 0.519
COR-L23 | 0.323
HCC-827 | 0.481
NCI-H522 | 0.944
LCLC-103H | 0.439
RERF-LC-KJ | 1.1
NCI-H3122 | 0.173
BEN | 0.466
UMC-11 | 0.361
LCLC-97TM1 | 0.226
NCI-H2085 | 0.452
NCI-H727 | 0.631
NCI-H838 | 0.237
NCI-H1793 | 0.344
201T | 0.368
NCI-H2228 | 0.825
LOU-NH91 | 0.537
NCI-H1666 | 0.661
NCI-H650 | 0.381
ChaGo-K-1 | 0.914
NCI-H1993 | 1.12
HCC-44 | 0.926
NCI-H647 | 0.364
NCI-H2126 | 0.339
NCI-H1755 | 0.48

Same assay, conditions: first compound 0.8 µM

Cell Line | relative viability
LC-2-ad | 0.506
SW 900 | 0.565
NCI-H1651 | 0.525
COR-L23 | 0.316
HCC-827 | 0.442
NCI-H522 | 0.972
LCLC-103H | 0.481
RERF-LC-KJ | 1.07
NCI-H3122 | 0.204
BEN | 0.487
UMC-11 | 0.29
LCLC-97TM1 | 0.23
NCI-H2085 | 0.495
A-427 | 0.538
NCI-H727 | 0.698
NCI-H838 | 0.226
NCI-H1793 | 0.324
201T | 0.371
NCI-H2228 | 0.904
LOU-NH91 | 0.548
NCI-H1666 | 0.694
NCI-H650 | 0.353
ChaGo-K-1 | 0.928
NCI-H1993 | 0.749
HCC-44 | 1.01
NCI-H647 | 0.379
NCI-H2126 | 0.368
NCI-H1755 | 0.5

Same assay, conditions: first compound 2.53 µM

Cell Line | relative viability
LC-2-ad | 0.484
SW 900 | 0.525
NCI-H1651 | 0.51
COR-L23 | 0.29
HCC-827 | 0.504
NCI-H522 | 0.999
LCLC-103H | 0.466
RERF-LC-KJ | 1.09
NCI-H3122 | 0.167
BEN | 0.52
UMC-11 | 0.331
LCLC-97TM1 | 0.223
NCI-H2085 | 0.464
A-427 | 0.494
NCI-H727 | 0.644
NCI-H838 | 0.228
NCI-H1793 | 0.32
201T | 0.358
NCI-H2228 | 0.685
LOU-NH91 | 0.574
NCI-H1666 | 0.679
NCI-H650 | 0.319
ChaGo-K-1 | 0.904
NCI-H1993 | 0.714
HCC-44 | 0.978
NCI-H647 | 0.494
NCI-H2126 | 0.361
NCI-H1755 | 0.448

Same assay, conditions: first compound 8 µM

Cell Line | relative viability
LC-2-ad | 0.47
SW 900 | 0.51
NCI-H1651 | 0.531
COR-L23 | 0.26
HCC-827 | 0.442
NCI-H522 | 0.955
LCLC-103H | 0.515
RERF-LC-KJ | 1.05
NCI-H3122 | 0.194
BEN | 0.489
UMC-11 | 0.343
LCLC-97TM1 | 0.229
NCI-H2085 | 0.538
A-427 | 0.501
NCI-H727 | 0.601
NCI-H838 | 0.18
NCI-H1793 | 0.248
201T | 0.365
NCI-H2228 | 0.573
LOU-NH91 | 0.529
NCI-H1666 | 0.625
NCI-H650 | 0.32
ChaGo-K-1 | 0.874
NCI-H1993 | 0.593
HCC-44 | 0.969
NCI-H647 | 0.438
NCI-H2126 | 0.376
NCI-H1755 | 0.423

Compound: C[C@]1(c2nc3c(C(N)=O)cccc3[nH]2)CCCN1 [Veliparib] + N=C(N)NC(=N)NCCc1ccccc1 [Phenformin] (partner 250 µM)
Assay: as above
Details: first compound 0.02 µM
Summary of the method: as §1

Cell Line | relative viability
NCI-H1651 | 0.286
COR-L23 | 0.409
HCC-827 | 0.357
NCI-H522 | 0.683
LCLC-103H | 0.328
RERF-LC-KJ | 0.408
NCI-H3122 | 0.335
BEN | 0.24
UMC-11 | 0.334
LCLC-97TM1 | 0.428
NCI-H727 | 0.481
NCI-H838 | 0.576
NCI-H1793 | 0.392
201T | 0.411
NCI-H2228 | 0.209
LOU-NH91 | 0.604
NCI-H1666 | 0.546
NCI-H650 | 0.439
ChaGo-K-1 | 0.326
NCI-H1993 | 0.568
HCC-44 | 0.157
NCI-H647 | 0.438
NCI-H2126 | 0.556
NCI-H1755 | 0.637

Same assay, conditions: first compound 0.06325 µM

Cell Line | relative viability
LC-2-ad | 0.551
NCI-H1651 | 0.34
COR-L23 | 0.373
HCC-827 | 0.396
NCI-H522 | 0.664
LCLC-103H | 0.353
RERF-LC-KJ | 0.442
NCI-H3122 | 0.345
BEN | 0.251
UMC-11 | 0.316
LCLC-97TM1 | 0.435
NCI-H2085 | 0.734
A-427 | 0.29
NCI-H727 | 0.443
NCI-H838 | 0.495
NCI-H1793 | 0.384
201T | 0.356
NCI-H2228 | 0.301
LOU-NH91 | 0.457
NCI-H1666 | 0.507
NCI-H650 | 0.385
ChaGo-K-1 | 0.517
NCI-H1993 | 0.567
HCC-44 | 0.144
NCI-H647 | 0.405
NCI-H2126 | 0.535
NCI-H1755 | 0.629

Same assay, conditions: first compound 0.2 µM

Cell Line | relative viability
LC-2-ad | 0.631
SW 900 | 0.679
NCI-H1651 | 0.379
COR-L23 | 0.4
HCC-827 | 0.43
NCI-H522 | 0.667
LCLC-103H | 0.341
RERF-LC-KJ | 0.4
NCI-H3122 | 0.384
BEN | 0.292
UMC-11 | 0.312
LCLC-97TM1 | 0.439
NCI-H2085 | 0.795
A-427 | 0.328
NCI-H727 | 0.549
NCI-H838 | 0.564
NCI-H1793 | 0.466
201T | 0.463
NCI-H2228 | 0.276
LOU-NH91 | 0.694
NCI-H1666 | 0.544
NCI-H650 | 0.405
ChaGo-K-1 | 0.465
NCI-H1993 | 0.561
HCC-44 | 0.188
NCI-H647 | 0.563
NCI-H2126 | 0.519
NCI-H1755 | 0.631

Same assay, conditions: first compound 0.6325 µM

Cell Line | relative viability
LC-2-ad | 0.589
SW 900 | 0.504
NCI-H1651 | 0.279
COR-L23 | 0.407
HCC-827 | 0.368
NCI-H522 | 0.583
LCLC-103H | 0.325
RERF-LC-KJ | 0.396
NCI-H3122 | 0.357
BEN | 0.253
UMC-11 | 0.284
LCLC-97TM1 | 0.428
NCI-H2085 | 0.652
A-427 | 0.391
NCI-H727 | 0.483
NCI-H838 | 0.424
NCI-H1793 | 0.329
201T | 0.457
NCI-H2228 | 0.284
LOU-NH91 | 0.639
NCI-H1666 | 0.487
NCI-H650 | 0.408
ChaGo-K-1 | 0.471
NCI-H1993 | 0.552
HCC-44 | 0.17
NCI-H647 | 0.505
NCI-H2126 | 0.498
NCI-H1755 | 0.518

Same assay, conditions: first compound 2 µM

Cell Line | relative viability
LC-2-ad | 0.472
SW 900 | 0.508
NCI-H1651 | 0.316
COR-L23 | 0.425
HCC-827 | 0.387
NCI-H522 | 0.802
LCLC-103H | 0.327
RERF-LC-KJ | 0.47
NCI-H3122 | 0.387
BEN | 0.25
UMC-11 | 0.314
LCLC-97TM1 | 0.499
NCI-H2085 | 0.699
A-427 | 0.278
NCI-H727 | 0.521
NCI-H838 | 0.628
NCI-H1793 | 0.361
201T | 0.462
NCI-H2228 | 0.236
LOU-NH91 | 0.682
NCI-H1666 | 0.534
NCI-H650 | 0.412
ChaGo-K-1 | 0.514
NCI-H1993 | 0.482
HCC-44 | 0.135
